Like-named read-outs stand apart in the source and are kept apart here.

For one data set, the target named is T1, AnAbfA (GH51) (Aspergillus niger, UniProt A2Q7E0).
T1 construct: gene abfA; synthetic gene in pPICZalpha (vector fragment amplified from untagged AkAbfB plasmid), secreted from Pichia pastoris X-33
T1 sequence (A2Q7E0 26-628): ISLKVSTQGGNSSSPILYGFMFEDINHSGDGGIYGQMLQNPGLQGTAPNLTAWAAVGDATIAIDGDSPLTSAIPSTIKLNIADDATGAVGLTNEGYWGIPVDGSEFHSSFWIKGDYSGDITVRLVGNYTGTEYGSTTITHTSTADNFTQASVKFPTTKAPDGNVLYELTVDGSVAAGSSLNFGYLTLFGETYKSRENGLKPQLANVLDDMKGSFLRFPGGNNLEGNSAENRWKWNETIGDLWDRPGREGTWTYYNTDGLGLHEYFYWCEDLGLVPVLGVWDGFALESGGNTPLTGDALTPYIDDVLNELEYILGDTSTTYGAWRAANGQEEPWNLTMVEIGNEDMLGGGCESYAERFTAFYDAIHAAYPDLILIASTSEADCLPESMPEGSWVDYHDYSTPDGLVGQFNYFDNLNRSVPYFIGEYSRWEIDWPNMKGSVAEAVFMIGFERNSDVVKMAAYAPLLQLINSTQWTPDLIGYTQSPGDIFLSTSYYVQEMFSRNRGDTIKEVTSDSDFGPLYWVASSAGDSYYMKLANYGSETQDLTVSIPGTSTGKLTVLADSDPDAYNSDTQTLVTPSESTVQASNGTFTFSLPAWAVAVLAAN
Nature of the data set: continuous fluorescence assay, irreversible inhibition kinetics. Format: biochemical. The text has this:
continuous fluorescence assay, irreversible inhibition kinetics on AnAbfA (GH51)

Another data set has as its target T2, AbfE (GH51) (Aspergillus niger, UniProt A2QT56).
T2 construct: gene An09g00880; native secreted protein in arabinan-grown secretome
T2 sequence (A2QT56 32-646): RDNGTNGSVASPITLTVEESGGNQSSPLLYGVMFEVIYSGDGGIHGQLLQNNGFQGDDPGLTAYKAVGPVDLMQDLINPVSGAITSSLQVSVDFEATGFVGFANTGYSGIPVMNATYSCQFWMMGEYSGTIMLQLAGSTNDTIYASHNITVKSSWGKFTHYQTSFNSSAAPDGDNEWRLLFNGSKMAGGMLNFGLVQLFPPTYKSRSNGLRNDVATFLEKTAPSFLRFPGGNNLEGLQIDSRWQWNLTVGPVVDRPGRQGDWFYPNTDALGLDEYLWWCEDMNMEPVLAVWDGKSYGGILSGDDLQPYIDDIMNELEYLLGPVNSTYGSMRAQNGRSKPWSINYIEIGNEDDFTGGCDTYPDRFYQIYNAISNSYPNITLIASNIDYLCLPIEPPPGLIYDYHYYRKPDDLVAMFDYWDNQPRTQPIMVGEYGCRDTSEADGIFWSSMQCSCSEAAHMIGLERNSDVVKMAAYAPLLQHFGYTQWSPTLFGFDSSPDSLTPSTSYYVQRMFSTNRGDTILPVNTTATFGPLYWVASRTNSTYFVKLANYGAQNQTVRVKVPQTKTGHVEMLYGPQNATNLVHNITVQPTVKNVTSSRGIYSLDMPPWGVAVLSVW
As to the kind of experiment: competition with ABP […] pull-down, LC-MS/MS. It counts as biochemical. The conditions noted are these: covalent; 0.1 mM inhibitor 1 h, pH 6.5, 37 °C, then ABP 5.

Data set [1] addresses T3, GsGH51 (Geobacillus stearothermophilus abfA) (Geobacillus stearothermophilus, UniProt Q9XBQ3).
T3 construct: E. coli BL21(DE3) Gold, pET28a(+), N-terminal TEV-cleavable 6xHis tag removed
Nature of the data set: X-ray crystallography ([…] Å) and intact MS. Format: binding. Conditions: covalent; nucleophile E294.

Another data set addresses T4, AnAbfB (AbfB, GH54) (Aspergillus niger, UniProt A2R511).
T4 construct: native secreted glycoprotein in arabinan-grown secretome, ~65 kDa on gel (~60 kDa after PNGaseF)
T4 sequence (A2R511 19-499): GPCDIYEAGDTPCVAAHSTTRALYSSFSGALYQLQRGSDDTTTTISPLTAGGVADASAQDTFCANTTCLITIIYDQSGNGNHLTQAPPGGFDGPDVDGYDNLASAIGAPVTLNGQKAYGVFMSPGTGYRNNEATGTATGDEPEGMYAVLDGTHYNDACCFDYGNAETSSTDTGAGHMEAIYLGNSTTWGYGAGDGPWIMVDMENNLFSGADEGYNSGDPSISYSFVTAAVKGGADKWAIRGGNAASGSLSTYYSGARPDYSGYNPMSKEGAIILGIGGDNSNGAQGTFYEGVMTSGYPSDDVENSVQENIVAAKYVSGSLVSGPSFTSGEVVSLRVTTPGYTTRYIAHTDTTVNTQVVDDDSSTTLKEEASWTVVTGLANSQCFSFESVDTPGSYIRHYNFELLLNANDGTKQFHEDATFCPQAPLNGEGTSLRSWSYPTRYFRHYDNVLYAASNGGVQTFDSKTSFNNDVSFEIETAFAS
As to the kind of experiment: competition with ABP […] pull-down, LC-MS/MS. It counts as biochemical. The conditions noted are these: covalent; 0.1 mM inhibitor 1 h, pH 6.5, 37 °C, then ABP 5.

In another data set the target is T5, AkAbfB (GH54) (Aspergillus luchuensis, UniProt Q8NK89).
T5 construct: gene abfB; pPICZalpha, no purification tag, secreted from Pichia pastoris X-33; EndoH-deglycosylated for MS and crystallography
T5 sequence (Q8NK89 18-499): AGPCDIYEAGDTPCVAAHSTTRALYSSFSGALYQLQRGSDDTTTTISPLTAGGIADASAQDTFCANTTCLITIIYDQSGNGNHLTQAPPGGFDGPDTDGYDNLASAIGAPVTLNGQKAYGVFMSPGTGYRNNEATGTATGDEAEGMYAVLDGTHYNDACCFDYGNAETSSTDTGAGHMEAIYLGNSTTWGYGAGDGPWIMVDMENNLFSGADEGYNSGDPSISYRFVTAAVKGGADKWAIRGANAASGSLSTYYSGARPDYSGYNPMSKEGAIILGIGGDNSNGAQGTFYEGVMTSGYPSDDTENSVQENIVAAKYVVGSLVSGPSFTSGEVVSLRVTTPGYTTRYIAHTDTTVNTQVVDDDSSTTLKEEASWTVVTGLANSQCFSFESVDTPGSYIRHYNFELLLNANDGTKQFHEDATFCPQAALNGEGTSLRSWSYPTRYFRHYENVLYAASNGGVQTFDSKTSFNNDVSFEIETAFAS
Nature of the data set: continuous fluorescence assay, irreversible inhibition kinetics. Format: biochemical. The text has this:
continuous fluorescence assay, irreversible inhibition kinetics on AkAbfB (GH54)

Substrate in data set [2]: Cc1cc(=O)oc2cc(O[C@@H]3O[C@@H](CO)[C@H](O)[C@H]3O)ccc12
Nature of the data set: continuous fluorescence assay, Michaelis-Menten. Format: biochemical, Aspergillus luchuensis. Conditions: 4-500 μM substrate, 50 mM sodium phosphate pH 7.0, 25 °C.

Substrate in data set [3]: Cc1cc(=O)oc2cc(O[C@@H]3O[C@@H](CO)[C@H](O)[C@H]3O)ccc12
Nature of the data set: continuous fluorescence assay, Michaelis-Menten. Format: biochemical, Aspergillus niger. The conditions noted are these: 4-500 μM substrate, 50 mM sodium phosphate pH 7.0, 25 °C.

The mark [4] stands for this setting: covalent; mechanism-based; 4MU-Araf 100 μM, 50 mM sodium phosphate pH 7.0, 25 °C; read-out: KI.
Setting [5] is: 4MU-Araf 100 μM, 50 mM sodium phosphate pH 7.0, 25 °C; up to 0.25 mM inhibitor.
The mark [6] stands for this setting: read-out: KI; covalent; mechanism-based; 4MU-Araf 100 μM, 50 mM sodium phosphate pH 7.0, 25 °C.
Where [7] appears, read: covalent; mechanism-based; 4MU-Araf 100 μM, 50 mM sodium phosphate pH 7.0, 25 °C.

T3 sequence (Q9XBQ3 whole entry): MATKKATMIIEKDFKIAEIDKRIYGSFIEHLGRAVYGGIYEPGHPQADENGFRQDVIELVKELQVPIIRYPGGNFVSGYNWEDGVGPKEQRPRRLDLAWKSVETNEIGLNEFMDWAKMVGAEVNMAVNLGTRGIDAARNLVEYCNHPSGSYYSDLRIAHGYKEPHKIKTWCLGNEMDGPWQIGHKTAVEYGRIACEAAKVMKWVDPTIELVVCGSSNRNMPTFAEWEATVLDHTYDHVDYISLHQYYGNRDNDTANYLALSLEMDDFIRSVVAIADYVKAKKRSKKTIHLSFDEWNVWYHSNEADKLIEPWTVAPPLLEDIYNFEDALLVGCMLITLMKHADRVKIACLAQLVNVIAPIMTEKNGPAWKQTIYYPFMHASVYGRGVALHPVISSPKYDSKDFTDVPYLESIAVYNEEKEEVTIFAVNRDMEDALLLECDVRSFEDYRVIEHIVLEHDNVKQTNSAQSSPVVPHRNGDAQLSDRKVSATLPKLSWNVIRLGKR

On to `OC[C@H]1[C@H](O)[C@@H](O)[C@@H]2N[C@H]12` [compound 2, inhibitor 2], for which the KI (inactivation) on AnAbfA (GH51) (setting [4]) turned out to be 140 ± 20 µM; on AkAbfB (GH54) (setting [4]), 320 ± 50 µM. Further, the “competition with ABP 5 pull-down, LC-MS/MS” value at AbfE (GH51) was “significantly reduced signal for peptides from AbfA, AbfB, and AbfE”; at AnAbfB (AbfB, GH54), “significantly reduced signal for peptides from AbfA, AbfB, and AbfE”. Moreover, the “X-ray crystallography (1.40 Å) and intact MS” value in data set [1] was “full occupancy covalent complex between E294, the known catalytic nucleophile, and each inhibitor”.

As a reminder, the kinact/KI is the second-order rate constant of inactivation. Consider `OC[C@H]1[C@H](O)[C@@H](O)[C@@H]2O[C@H]12` [compound 1], for which the “kinact/KI” value on AnAbfA (GH51) (setting [5]) and at AkAbfB (GH54) (setting [5]) was less than 0.1 M⁻¹ s⁻¹ throughout.

With `NCCCCCCCCN1[C@@H]2[C@@H](CO)[C@H](O)[C@@H](O)[C@@H]21` (stereo partly shown) [compound 3, inhibitor 3], the KI (inactivation) on AnAbfA (GH51) (setting [6]) is 210 ± 30 µM; at AkAbfB (GH54) (setting [6]) it was 320 ± 40 µM.

Take `O=S1(=O)O[C@@H]2[C@@H](CO)[C@H](O)[C@@H](O)[C@@H]2O1` [compound 6, inhibitor 6]: the “kinact/KI” value on AnAbfA (GH51) (setting [7]) was 160 ± 20 M⁻¹ s⁻¹; on AkAbfB (GH54) (setting [7]), 240 ± 30 M⁻¹ s⁻¹. For the same molecule, the “X-ray crystallography (1.40 Å) and intact MS” value in data set [1] was “full occupancy covalent complex between E294, the known catalytic nucleophile, and each inhibitor”.

B1: AkAbfB (GH54) (Aspergillus luchuensis IFO 4308) (protein)
chain: AGPCDIYEAGDTPCVAAHSTTRALYSSFSGALYQLQRGSDDTTTTISPLTAGGIADASAQDTFCANTTCLITIIYDQSGNGNHLTQAPPGGFDGPDTDGYDNLASAIGAPVTLNGQKAYGVFMSPGTGYRNNEATGTATGDEAEGMYAVLDGTHYNDACCFDYGNAETSSTDTGAGHMEAIYLGNSTTWGYGAGDGPWIMVDMENNLFSGADEGYNSGDPSISYRFVTAAVKGGADKWAIRGANAASGSLSTYYSGARPDYSGYNPMSKEGAIILGIGGDNSNGAQGTFYEGVMTSGYPSDDTENSVQENIVAAKYVVGSLVSGPSFTSGEVVSLRVTTPGYTTRYIAHTDTTVNTQVVDDDSSTTLKEEASWTVVTGLANSQCFSFESVDTPGSYIRHYNFELLLNANDGTKQFHEDATFCPQAALNGEGTSLRSWSYPTRYFRHYENVLYAASNGGVQTFDSKTSFNNDVSFEIETAFAS
notes: pPICZalpha, no purification tag, secreted from Pichia pastoris X-33; EndoH-deglycosylated for MS and crystallography
In general, Km refers to the substrate concentration at which the rate is half of its maximum. One may read the kcat as the number of substrate molecules converted per active site and unit of time at saturation. As for B1, in data set [2], the Km is 390 ± 30 µM and the turnover number (kcat) amounted to 3.5 ± 0.167 s⁻¹.

B2: AnAbfA (GH51) (Aspergillus niger CBS 513.88) (protein)
chain: ISLKVSTQGGNSSSPILYGFMFEDINHSGDGGIYGQMLQNPGLQGTAPNLTAWAAVGDATIAIDGDSPLTSAIPSTIKLNIADDATGAVGLTNEGYWGIPVDGSEFHSSFWIKGDYSGDITVRLVGNYTGTEYGSTTITHTSTADNFTQASVKFPTTKAPDGNVLYELTVDGSVAAGSSLNFGYLTLFGETYKSRENGLKPQLANVLDDMKGSFLRFPGGNNLEGNSAENRWKWNETIGDLWDRPGREGTWTYYNTDGLGLHEYFYWCEDLGLVPVLGVWDGFALESGGNTPLTGDALTPYIDDVLNELEYILGDTSTTYGAWRAANGQEEPWNLTMVEIGNEDMLGGGCESYAERFTAFYDAIHAAYPDLILIASTSEADCLPESMPEGSWVDYHDYSTPDGLVGQFNYFDNLNRSVPYFIGEYSRWEIDWPNMKGSVAEAVFMIGFERNSDVVKMAAYAPLLQLINSTQWTPDLIGYTQSPGDIFLSTSYYVQEMFSRNRGDTIKEVTSDSDFGPLYWVASSAGDSYYMKLANYGSETQDLTVSIPGTSTGKLTVLADSDPDAYNSDTQTLVTPSESTVQASNGTFTFSLPAWAVAVLAAN
notes: synthetic gene in pPICZalpha (vector fragment amplified from untagged AkAbfB plasmid), secreted from Pichia pastoris X-33
As for B2, in data set [3], the Km was found to be 240 ± 20 µM and the kcat was determined as 2.17 ± 0.167 s⁻¹.

These data come from publication PMC7068720, “Rational Design of Mechanism-Based Inhibitors and Activity-Based Probes for the Identification of Retaining α-L-Arabinofuranosidases” (Journal of the American Chemical Society, 2020).
